Source: patent US20240190880A1 (THE REGENTS OF THE UNIVERSITY OF MICHIGAN, priority 2021, published 2024)

These molecules were tested against T1, ER (Homo sapiens, UniProt P03372) (assay: ER degradation activity, in-cell western blot analysis in T47D cells). Conditions: 16 hours, Table A does not say which cell line (T47D or MCF7), read-out: Potency (DC50).
T1 construct: host or cells: T47D and MCF7 human breast cancer cells
T1 sequence (P03372 1-595): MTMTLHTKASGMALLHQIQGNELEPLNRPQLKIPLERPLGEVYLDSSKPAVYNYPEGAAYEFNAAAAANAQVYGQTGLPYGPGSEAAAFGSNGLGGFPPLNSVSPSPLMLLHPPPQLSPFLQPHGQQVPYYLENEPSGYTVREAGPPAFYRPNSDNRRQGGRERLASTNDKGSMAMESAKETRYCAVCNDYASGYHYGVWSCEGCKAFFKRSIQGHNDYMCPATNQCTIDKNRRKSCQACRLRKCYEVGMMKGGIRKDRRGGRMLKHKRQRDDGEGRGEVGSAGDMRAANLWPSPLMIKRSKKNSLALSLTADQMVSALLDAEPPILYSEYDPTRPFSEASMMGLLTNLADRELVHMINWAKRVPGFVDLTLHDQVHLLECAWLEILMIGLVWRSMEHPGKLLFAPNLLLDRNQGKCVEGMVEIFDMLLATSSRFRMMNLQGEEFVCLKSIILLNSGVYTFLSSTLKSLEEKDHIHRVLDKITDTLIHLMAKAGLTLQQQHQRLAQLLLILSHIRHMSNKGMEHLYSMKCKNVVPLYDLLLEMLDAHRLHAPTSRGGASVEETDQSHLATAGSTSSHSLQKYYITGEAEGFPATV
Type: cell-based
Summary of the method: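 T47D cells cultured in DMEM with 10% FBS, treated with compounds (final 0.5% DMSO) for 16 h. ER level measured by in-cell western with anti-rabbit-680/anti-mouse-800 near-infrared detection. Relative ER percentage calculated against untreated and DMSO-treated wells set as 100%.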

Compound | DC50 [µM]
O=C1CCC(N2C(=O)c3cc4c(cc3C2=O)CN(C2CCN(CC3CN(c5ccc([C@H]6c7ccc(O)cc7CC[C@H]6c6ccc(F)cc6)cc5)C3)CC2)C4)C(=O)N1 (stereo partly drawn) [E 276, 2-(2,6-dioxopiperidin-3-yl)-6-(1-((1-(4-((1S,2R)-2-(4-fluorophenyl)-6-hydroxy-1,2,3,4-tetrahydronaphthalen-1-yl)phenyl)azetidin-3-yl)methyl)piperidin-4-yl)-6,7-dihydropyrrolo[3,4-f]isoindole-1,3(2H,5H)-dione] | > 0.1
O=C1CCC(N2C(=O)c3cc4c(cc3C2=O)CN(CC2(F)CCN(C(=O)C3(F)CN(c5ccc([C@@H]6c7ccc(O)cc7CC[C@@H]6c6ccccc6)cc5)C3)CC2)C4)C(=O)N1 (stereo partly drawn) [E 202, 2-(2,6-dioxopiperidin-3-yl)-6-((4-fluoro-1-(3-fluoro-1-(4-((1R,2S)-6-hydroxy-2-phenyl-1,2,3,4-tetrahydronaphthalen-1-yl)phenyl)azetidine-3-carbonyl)piperidin-4-yl)methyl)-6,7-dihydropyrrolo[3,4-f]isoindole-1,3(2H,5H)-dione] | > 0.1
C[C@@H]1Cc2c([nH]c3ccccc23)[C@@H](c2c(F)cc(N3CC(CC(=O)N4Cc5cc6c(cc5C4)C(=O)N(C4CCC(=O)NC4=O)C6)C3)cc2F)N1CC(F)F (stereo partly drawn) [E 102, 3-(6-(2-(1-(4-((1R,3R)-2-(2,2-difluoroethyl)-3-methyl-2,3,4,9-tetrahydro-1H-pyrido[3,4-b]indol-1-yl)-3,5-difluorophenyl)azetidin-3-yl)acetyl)-1-oxo-3,5,6,7-tetrahydropyrrolo[3,4-f]isoindol-2(1H)-yl)piperidine-2,6-dione] | > 0.1
O=C1CCC(N2C(=O)c3cc4c(cc3C2=O)CN(C(=O)C2CCN(CC3CCN(c5ccc([C@@H]6c7ccc(O)cc7CC[C@@H]6c6ccccc6)cc5)CC3)CC2)C4)C(=O)N1 (stereo partly drawn) [E 205, 2-(2,6-dioxopiperidin-3-yl)-6-(1-((1-(4-((1R,2S)-6-hydroxy-2-phenyl-1,2,3,4-tetrahydronaphthalen-1-yl)phenyl)piperidin-4-yl)methyl)piperidine-4-carbonyl)-6,7-dihydropyrrolo[3,4-f]isoindole-1,3(2H,5H)-dione] | > 0.1
C[C@@H]1Cc2c([nH]c3ccccc23)[C@@H](c2c(F)cc(N3CCCC4(CCN(C(=O)CN5Cc6cc7c(cc6C5)C(=O)N(C5CCC(=O)NC5=O)C7=O)C4)C3)cc2F)N1CC(F)F (stereo partly drawn) [E 78, 6-(2-(7-(4-((1R,3R)-2-(2,2-difluoroethyl)-3-methyl-2,3,4,9-tetrahydro-1H-pyrido[3,4-b]indol-1-yl)-3,5-difluorophenyl)-2,7-diazaspiro[4.5]decan-2-yl)-2-oxoethyl)-2-(2,6-dioxopiperidin-3-yl)-6,7-dihydropyrrolo[3,4-f]isoindole-1,3(2H,5H)-dione] | > 0.1
O=C1CCC(N2Cc3cc4c(cc3C2=O)CN(CC2CCN(c3ccc([C@@H]5c6ccc(O)cc6CC[C@@H]5c5ccccc5)cc3)CC2)C4)C(=O)N1 (mixture of isomers) [E 1, Rac-3-(6-((1-(4-((1R,2S)-6-hydroxy-2-phenyl-1,2,3,4-tetrahydronaphthalen-1-yl)phenyl)piperidin-4-yl)methyl)-1-oxo-3,5,6,7-tetrahydropyrrolo[3,4-f]isoindol-2(1H)-yl)piperidine-2,6-dione] | > 0.1
C[C@@H]1Cc2c([nH]c3ccccc23)[C@@H](c2c(F)cc(-c3cnc(C(=O)N4CCC(N5Cc6cc7c(cc6C5)C(=O)N(C5CCC(=O)NC5=O)C7=O)CC4)cn3)cc2F)N1CC(F)F (stereo partly drawn) [E 344, 6-(1-(5-(4-((1R,3R)-2-(2,2-difluoroethyl)-3-methyl-2,3,4,9-tetrahydro-1H-pyrido[3,4-b]indol-1-yl)-3,5-difluorophenyl)pyrazine-2-carbonyl)piperidin-4-yl)-2-(2,6-dioxopiperidin-3-yl)-6,7-dihydropyrrolo[3,4-f]isoindole-1,3(2H,5H)-dione] | > 0.1

Second part, the molecule after the results:

DC50 [µM] | Compound
> 0.1 | O=C1CCC(N2C(=O)c3cc4c(cc3C2=O)CN(Cc2cnc(N3CC(Oc5ccc([C@@H]6c7ccc(O)cc7CC[C@@H]6c6ccccc6)cc5)C3)nc2)C4)C(=O)N1 (stereo partly drawn) [E330, 2-(2,6-dioxopiperidin-3-yl)-6-((2-(3-(4-((1R,2S)-6-hydroxy-2-phenyl-1,2,3,4-tetrahydronaphthalen-1-yl)phenoxy)azetidin-1-yl)pyrimidin-5-yl)methyl)-6,7-dihydropyrrolo[3,4-f]isoindole-1,3(2H,5H)-dione]
< 0.01 | C[C@@H]1Cc2c([nH]c3ccccc23)[C@@H](c2c(F)cc(N3CCC(CN4CCCC(N5Cc6cc7c(cc6C5)C(=O)N(C5CCC(=O)NC5=O)C7=O)CC4)CC3)cc2F)N1CC(F)F (stereo partly drawn) [E 130, 6-(1-((1-(4-((1R,3R)-2-(2,2-difluoroethyl)-3-methyl-2,3,4,9-tetrahydro-1H-pyrido[3,4-b]indol-1-yl)-3,5-difluorophenyl)piperidin-4-yl)methyl)azepan-4-yl)-2-(2,6-dioxopiperidin-3-yl)-6,7-dihydropyrrolo[3,4-f]isoindole-1,3(2H,5H)-dione]
0.01 to 0.1 | C[C@@H]1Cc2c([nH]c3ccccc23)[C@@H](c2c(F)cc(C3CCN(C(=O)C4CCC(N5Cc6cc7c(cc6C5)C(=O)N(C5CCC(=O)NC5=O)C7=O)CC4)CC3)cc2F)N1CC(F)F (stereo partly drawn) [E 348, 6-(4-(4-(4-((1R,3R)-2-(2,2-difluoroethyl)-3-methyl-2,3,4,9-tetrahydro-1H-pyrido[3,4-b]indol-1-yl)-3,5-difluorophenyl)piperidine-1-carbonyl)cyclohexyl)-2-(2,6-dioxopiperidin-3-yl)-6,7-dihydropyrrolo[3,4-f]isoindole-1,3(2H,5H)-dione]
0.01 to 0.1 | C[C@@H]1Cc2c([nH]c3ccccc23)[C@@H](c2c(F)cc(N3CCN(CCN4Cc5cc6c(cc5C4)C(=O)N(C4CCC(=O)NC4=O)C6)CC3)cc2F)N1CC(F)F (stereo partly drawn) [E 54, 3-(6-(2-(4-(4-((1R,3R)-2-(2,2-difluoroethyl)-3-methyl-2,3,4,9-tetrahydro-1H-pyrido[3,4-b]indol-1-yl)-3,5-difluorophenyl)piperazin-1-yl)ethyl)-1-oxo-3,5,6,7-tetrahydropyrrolo[3,4-f]isoindol-2(1H)-yl)piperidine-2,6-dione]
0.01 to 0.1 | O=C1CCC(N2C(=O)c3cc4c(cc3C2=O)CN(CC(=O)N2CCC3(CC2)CCN(c2ccc(C(=C(CCCl)c5ccccc5)c5ccc(O)cc5)cc2)C3)C4)C(=O)N1 (stereo not shown) [E 190, 6-(2-(2-(4-(4-chloro-1-(4-hydroxyphenyl)-2-phenylbut-1-en-1-yl)phenyl)-2,8-diazaspiro[4.5]decan-8-yl)-2-oxoethyl)-2-(2,6-dioxopiperidin-3-yl)-6,7-dihydropyrrolo[3,4-f]isoindole-1,3(2H,5H)-dione]
< 0.01 | O=C1CCC(N2C(=O)c3cc4c(cc3C2=O)CN([C@H]2CC[C@H](C(=O)N3CC(Nc5ccc([C@H]6c7ccc(O)cc7CC[C@H]6c6ccccc6)cc5)C3)CC2)C4)C(=O)N1 (stereo partly drawn) [E 387, 2-(2,6-dioxopiperidin-3-yl)-6-((1S,4r)-4-(3-((4-((1S,2R)-6-hydroxy-2-phenyl-1,2,3,4-tetrahydronaphthalen-1-yl)phenyl)amino)azetidine-1-carbonyl)cyclohexyl)-6,7-dihydropyrrolo[3,4-f]isoindole-1,3(2H,5H)-dione]
0.01 to 0.1 | O=C1CCC(N2C(=O)c3cc4c(cc3C2=O)CN(CC(=O)N2CCC3(CC2)CCN(c2ccc([C@@H]5c6ccc(B(O)O)cc6CC[C@@H]5c5ccccc5)cc2)CC3)C4)C(=O)N1 (mixture of isomers) [E 180, Rac-((5R,6S)-5-(4-(9-(2-(6-(2,6-dioxopiperidin-3-yl)-5,7-dioxo-3,5,6,7-tetrahydropyrrolo[3,4-f]isoindol-2(1H)-yl)acetyl)-3,9-diazaspiro[5.5]undecan-3-yl)phenyl)-6-phenyl-5,6,7,8-tetrahydronaphthalen-2-yl)boronic acid]

Same assay, conditions: compounds 16 hours, Table A does not say whether T47D or MCF7, read-out: Potency (DC50)

DC50 [µM] | Compound
0.01 to 0.1 | C[C@@H]1Cc2c([nH]c3ccccc23)[C@@H](c2cnc(N3CCC4(CC3)CC(CN3Cc5cc6c(cc5C3)C(=O)N(C3CCC(=O)NC3=O)C6=O)C4)nc2)N1CC(F)F (stereo partly drawn) [E 474, 6-((7-(5-((1R,3R)-2-(2,2-difluoroethyl)-3-methyl-2,3,4,9-tetrahydro-1H-pyrido[3,4-b]indol-1-yl)pyrimidin-2-yl)-7-azaspiro[3.5]nonan-2-yl)methyl)-2-(2,6-dioxopiperidin-3-yl)-6,7-dihydropyrrolo[3,4-f]isoindole-1,3(2H,5H)-dione]
> 0.1 | C[C@@H]1Cc2c([nH]c3ccccc23)[C@@H](c2ncc(C3=CCC(C(=O)N4CCC(N5Cc6cc7c(cc6C5)C(=O)N(C5CCC(=O)NC5=O)C7=O)CC4)CC3)cc2F)N1CC(C)(F)F (stereo partly drawn) [E 483, 6-(1-(4-(6-((1S,3R)-2-(2,2-difluoropropyl)-3-methyl-2,3,4,9-tetrahydro-1H-pyrido[3,4-b]indol-1-yl)-5-fluoropyridin-3-yl)cyclohex-3-ene-1-carbonyl)piperidin-4-yl)-2-(2,6-dioxopiperidin-3-yl)-6,7-dihydropyrrolo[3,4-f]isoindole-1,3(2H,5H)-dione]
